This note sets out measurements from US20240239790A1, “7-Morpholino-1,6-Naphthyridin-5-yl Derivatives and Pharmaceutical Compositions Thereof Useful as DNA-PK Inhibitor” (adMare Therapeutics Society, priority 2021, published 2024).

The target of data set [1] is T1, DNA-PK phosphorylation at Serine 2056 (Homo sapiens, UniProt P78527).
T1 construct: FaDu cells were purchased from ATCC; host or cells: FaDu
The data set is described as follows: Cellular Assay for Inhibition of DNA-PK Phosphorylation at Serine 2056 in FaDu cells (sandwich ELISA, neocarzinostatin). Format: cell-based. The note with it: pSer2056 DNA-PK, Table 3. As to the method: FaDu cells were purchased from ATCC and maintained in MEM alpha medium (Life Technologies, cat. no. 12561) supplemented with 10% fetal bovine serum, and 1% GlutaMAX at 37° C. supplemented with 5% CO2. 50,000 cells were seeded to each well of a 96-well cell culture plate in 50 μL of culture medium and incubated for 16-24 hours. Three-fold serially diluted compounds were prepared in DMSO. Culture media was used to prepare compound treatments to 0.3% DMSO (dimethyl sulphoxide) content. Compound treatments were added to the cells for 1 hour prior incubation, followed by the addition of neocarzinostatin in fresh culture medium to 1 μg/mL final concentration for an additional 2 hours incubation to induce DNA DSBs (double-strand breaks). DMSO controls were incubated with fresh culture medium alone for the additional two hours incubation. The cells were then lysed and frozen at −20° C. Cell lysates were thawed on wet ice and protein concentrations quantified by BCA Protein Assay (Thermo #23225). Lysis buffer was used to normalize lysates by protein content and all lysates were then investigated by sandwich ELISA by means of DNA-PK-specific antibodies (Abcam ab44815: total DNA-PK; ab124918: phosphoserine-2056 DNA-PK) in sandwich ELISA format on the MSD S600MM platform (MesoScale Discovery). % inhibition was calculated for all data points: =1−(DATA_PT−AVERAGE(DMSO controls))/(AVERAGE(NCS controls)−AVERAGE(DMSO controls)). Logarithm of the molar concentration of compound was plotted against percent inhibition to calculate IC50 values, with curve fit settings for data fit to log(inhibitor) vs. normalized response—Variable slope using curve fit software (GraphPad Prism).
In general terms: In an ELISA, binding on a coated surface is turned into a signal by an enzyme label.

Another data set concerns FaDu cell line. The data set is described as follows: Prodrug Activation in Hypoxic Stirred Tumour Cell Suspensions. The note with it: 10 μM, 4 hours.
In data set [2] the test system is pH2AX induction in HCT116 ATM-/- multicellular tumour spheroids. The data set is described as follows: Prodrug Radiation Sensitization in Multicellular Tumour Spheroids, inhibition of pH2AX induction following radiation. The conditions noted are these: Homo sapiens, HCT-116, 20 Gy. The format is cell-based. The protocol:
Prodrug compounds were assayed to determine their potency in 3D multicellular spheroids in media maintained under 20% vs 5% oxygen. Multicellular tumour spheroids were grown to approximately 0.5 mm in diameter and irradiated with 20 Gy in combination with inhibitor test compounds to determine their potency using HCT 116 and FaDu cell lines. Experiments were carried out in 96 well plates containing 0.7 mls of MEM media containing 10% FBS and 10 mM glucose under 5% CO2 at 37° C. Following dilution of compounds 1:1000 from DMSO stocks, compounds were serially diluted from 10 μM down to 3.5 nM and 5-10 spheroids added. 96 well plates were constantly stirred to avoid spheroids settling during the course of the experiment. Endpoints were pDNA-PK (ser 2056) or pH2AX (ser 139) status in spheroid cryosections taken 1 or 2 hours following radiation and fixed immediately in formalin. Using tumour cell lines deficient in ATM improved the assay signal to noise and gH2AX readout. Using this assay prodrug activity could be compared in the more oxygenated outer spheroid layers versus less oxygenated hypoxic central cell layers.

The mark [3] stands for this setting: 5% O2, inner layers, read-out: Prodrug 5% O2 Inner layers EC50.
The mark [4] stands for this setting: 5% O2, outer layers, read-out: Prodrug 5% O2 Outer layers EC50.
The mark [5] stands for this setting: 20% O2, outer layers, read-out: Prodrug 20% O2 Outer layers EC50.

Where two headings read alike, the source gives them in different places.

Experimental for FaDu cell line: Prodrug compounds were assayed to determine their stability and rate of activation in stirred cell suspensions under 0.2 vs 5% oxygen. Compounds were diluted 1:1000 from DMSO stocks to 10 μM final concentration in tumour cell suspensions (1% by cell volume) in MEM media containing 10% FBS, 10 mM glucose & 3.7 g/L sodium bicarbonate. Cell lines assayed included A253, A549, Detroit562, FaDu, HCT116, HEP G2, HT29, SCC25, SCC9, SiHa & TC32. Compounds and cells were then incubated for 4 hours under constant mixing at 37° C. under 5% CO2 and either 0.2 or 5% O2. Following the incubation period cellular activation of the compounds was assayed via MeOH extraction and HPLC quantification.

A word on the IC50: it is the concentration at which inhibition is half-maximal. Read a high IC50 as weaker potency. For orientation: EC50 means the concentration needed to bring the measured effect to its halfway point. In the case of `CC(Oc1cnc2cc(N3CCOCC3)nc(O[C@H]3CC[C@@H](Nc4ncc(N5CCN(C)CC5)cn4)CC3)c2c1)c1cnc([N+](=O)[O-])n1C` (stereo partly drawn) [LFA2066, N-[4-[[3-[1-(3-methyl-2-nitro-imidazol-4-yl)ethoxy]-7-morpholino-1,6-naphthyridin-5-yl]oxy]cyclohexyl]-5-(4-methylpiperazin-1-yl)pyrimidin-2-amine], the IC50 in data set [1] was in the range of 10000 to 30000 nM. Moreover, the “Fraction of prodrug converted to active form, Hypoxic 0.2% O2” value (from here on “Fraction … Hypoxic 0.2% O2”) in the data set on FaDu cell line is “A (A is 0.15 to 1)”. The “Fraction of prodrug converted to active form, Oxic 5% O2” value (“Fraction … Oxic 5% O2” for short) with FaDu cell line is reported as “B (B is 0.05 to 0.15)”. Besides, the EC50 in data set [2] (setting [3]) was 10 to 500 nM; in data set [2] (setting [4]) it was 1000 to 10000 nM; in data set [2] (setting [5]), 1000 to 10000 nM.

In turn, `Cn1c(CN(c2cnc3cc(N4CCOCC4)nc(OC4CCC(Nc5ncc(N6CCN(CC(F)F)CC6)cn5)CC4)c3c2)S(C)(=O)=O)cnc1[N+](=O)[O-]` (stereo not drawn) [LFA2048, N-[5-[4-[[5-[4-(2,2-difluoroethyl)piperazin-1-yl]pyrimidin-2-yl]amino]cyclohexoxy]-7-morpholino-1,6-naphthyridin-3-yl]-N-[(3-methyl-2-nitro-imidazol-4-yl)methyl]methanesulfonamide] showed an IC50 in data set [1] of 10000 to 30000 nM. Moreover, the “Fraction … Hypoxic 0.2% O2” value in the data set on FaDu cell line is listed as “B (B is 0.05 to 0.15)”. In the data set with FaDu cell line, the “Fraction … Oxic 5% O2” value is “D (D is 0 to 0.02)”. In addition, the 50% effective concentration (EC50) in data set [2] (setting [3]) was 500 to 1000 nM; in data set [2] (setting [4]) it was 1000 to 10000 nM; in data set [2] (setting [5]) it was 500 to 1000 nM.

In data set [1], `CC(Oc1cnc2cc(N3CCOCC3)nc(O[C@H]3CC[C@@H](Nc4ncc(CN(C)C)cn4)CC3)c2c1)c1cnc([N+](=O)[O-])n1C` (stereo partly drawn) [LFA2085, 5-[(dimethylamino)methyl]-N-[4-[[3-[1-(3-methyl-2-nitro-imidazol-4-yl)ethoxy]-7-morpholino-1,6-naphthyridin-5-yl]oxy]cyclohexyl]pyrimidin-2-amine] had a concentration for half-maximal inhibition (IC50) of 1000 to 10000 nM. The “Fraction … Hypoxic 0.2% O2” value with FaDu cell line was “B (B is 0.05 to 0.15)”. Also, in the data set on FaDu cell line, the “Fraction … Oxic 5% O2” value is given as “D (D is 0 to 0.02)”. Besides, the EC50 in data set [2] (setting [3]), in data set [2] (setting [4]) and in data set [2] (setting [5]) was 1000 to 10000 nM in each case.

`Cn1ncc(CN(c2cnc3cc(N4CCOCC4)nc(O[C@H]4CC[C@@H](Nc5ncccn5)CC4)c3c2)S(C)(=O)=O)c1[N+](=O)[O-]` [LFA2057, N-[(1-methyl-5-nitro-pyrazol-4-yl)methyl]-N-[7-morpholino-5-[4-(pyrimidin-2-ylamino)cyclohexoxy]-1,6-naphthyridin-3-yl]methanesulfonamide] displayed an IC50 in data set [1] of 1000 to 10000 nM. Also, the “Fraction … Hypoxic 0.2% O2” value in the data set on FaDu cell line is listed as “A (A is 0.15 to 1)”. In addition, in the data set with FaDu cell line, the “Fraction … Oxic 5% O2” value is “B (B is 0.05 to 0.15)”. Besides, the EC50 in data set [2] (setting [3]) lay in the range of 10 to 500 nM; in data set [2] (setting [4]) it was 10 to 500 nM; in data set [2] (setting [5]), 1000 to 10000 nM.

In data set [1], `Cn1c(COc2cnc3cc(N4CCOCC4)nc(O[C@H]4CC[C@@H](Nc5ccccn5)CC4)c3c2)cnc1[N+](=O)[O-]` [LFA2083, N-[4-[[3-[(3-methyl-2-nitro-imidazol-4-yl)methoxy]-7-morpholino-1,6-naphthyridin-5-yl]oxy]cyclohexyl]pyridin-2-amine] displayed an IC50 of 10000 to 30000 nM. The “Fraction … Hypoxic 0.2% O2” value in the data set with FaDu cell line is listed as “A (A is 0.15 to 1)”. In the data set on FaDu cell line, the “Fraction … Oxic 5% O2” value is “C (C is 0.02 to 0.05)”. Moreover, the figures for the EC50 in data set [2] (setting [3]), in data set [2] (setting [4]) and in data set [2] (setting [5]) were 10 to 500 nM, 1000 to 10000 nM and 1000 to 10000 nM, respectively.

As to `CC(c1cnn(C)c1[N+](=O)[O-])N(c1cnc2cc(N3CCOCC3)nc(O[C@H]3CC[C@@H](Nc4ncccn4)CC3)c2c1)S(C)(=O)=O` (stereo partly drawn) [LFA2056, N-[1-(1-methyl-5-nitro-pyrazol-4-yl)ethyl]-N-[7-morpholino-5-[4-(pyrimidin-2-ylamino)cyclohexoxy]-1,6-naphthyridin-3-yl]methanesulfonamide], the half-inhibitory concentration (IC50) in data set [1] fell in the range of 1000 to 10000 nM. For the same compound, the “Fraction … Hypoxic 0.2% O2” value in the data set on FaDu cell line was “C (C is 0.02 to 0.05)”. The “Fraction … Oxic 5% O2” value in the data set on FaDu cell line is on record as “C (C is 0.02 to 0.05)”. Further, the EC50 was 10 to 500 nM in data set [2] (setting [3]), 10 to 500 nM in data set [2] (setting [4]) and 1000 to 10000 nM in data set [2] (setting [5]).

`Cc1cc(C#N)nc(N[C@H]2CC[C@@H](Oc3nc(N4CCOCC4)cc4ncc(OC(C)c5cnc([N+](=O)[O-])n5C)cc34)CC2)n1` (stereo partly drawn) [LFA2094, 6-methyl-2-[[4-[[3-[1-(3-methyl-2-nitro-imidazol-4-yl)ethoxy]-7-morpholino-1,6-naphthyridin-5-yl]oxy]cyclohexyl]amino]pyrimidine-4-carbonitrile] registered an IC50 in data set [1] of 10000 to 30000 nM. For the same compound, in the data set on FaDu cell line, the “Fraction … Hypoxic 0.2% O2” value is given as “B (B is 0.05 to 0.15)”. In the data set with FaDu cell line, the “Fraction … Oxic 5% O2” value is “B (B is 0.05 to 0.15)”. Further, the values for the EC50 in data set [2] (setting [3]), in data set [2] (setting [4]) and in data set [2] (setting [5]) were 500 to 1000 nM, 1000 to 10000 nM and 10000 to 100000 nM, respectively.

`CS(=O)(=O)N(Cc1cnc([N+](=O)[O-])n1C1CC1)c1cnc2cc(N3CCOCC3)nc(O[C@H]3CC[C@@H](Nc4ncccn4)CC3)c2c1` [LFA2058, N-[(3-cyclopropyl-2-nitro-imidazol-4-yl)methyl]-N-[7-morpholino-5-[4-(pyrimidin-2-ylamino)cyclohexoxy]-1,6-naphthyridin-3-yl]methanesulfonamide] registered an IC50 in data set [1] of 1000 to 10000 nM. Also, the “Fraction … Hypoxic 0.2% O2” value in the data set with FaDu cell line is given as “B (B is 0.05 to 0.15)”. The “Fraction … Oxic 5% O2” value with FaDu cell line is on record as “C (C is 0.02 to 0.05)”. In addition, the EC50 in data set [2] (setting [3]) was 10 to 500 nM; in data set [2] (setting [4]) it was 10 to 500 nM; in data set [2] (setting [5]), 1000 to 10000 nM.

In data set [1], `CN1CCN(c2cnc(N[C@H]3CC[C@@H](Oc4nc(N5CCOCC5)cc5ncc(N(Cc6cnn(C)c6[N+](=O)[O-])S(C)(=O)=O)cc45)CC3)nc2)CC1` [LFA2072, N-[(1-methyl-5-nitro-pyrazol-4-yl)methyl]-N-[5-[4-[[5-(4-methylpiperazin-1-yl)pyrimidin-2-yl]amino]cyclohexoxy]-7-morpholino-1,6-naphthyridin-3-yl]methanesulfonamide] showed an IC50 of 1000 to 10000 nM. The “Fraction … Hypoxic 0.2% O2” value in the data set on FaDu cell line was “B (B is 0.05 to 0.15)”. Moreover, the “Fraction … Oxic 5% O2” value in the data set on FaDu cell line was “B (B is 0.05 to 0.15)”. In addition, the EC50 in data set [2] (setting [3]) lay in the range of 10 to 500 nM; in data set [2] (setting [4]), 10 to 500 nM; in data set [2] (setting [5]), 1000 to 10000 nM.

On to `CC(c1cnn(C)c1[N+](=O)[O-])N(c1cnc2cc(N3CCOCC3)nc(OC3CCC(Nc4ccn5nccc5n4)CC3)c2c1)S(C)(=O)=O` (stereo not drawn) [LFA2050, N-[1-(1-methyl-5-nitro-pyrazol-4-yl)ethyl]-N-[7-morpholino-5-[4-(pyrazolo[1,5-a]pyrimidin-5-ylamino)cyclohexoxy]-1,6-naphthyridin-3-yl]methanesulfonamide], for which the IC50 in data set [1] lay in the range of 1000 to 10000 nM. Also, the “Fraction … Hypoxic 0.2% O2” value with FaDu cell line is on record as “B (B is 0.05 to 0.15)”. Further, the “Fraction … Oxic 5% O2” value in the data set on FaDu cell line is “B (B is 0.05 to 0.15)”. In addition, the EC50 in data set [2] (setting [3]) lay in the range of 10 to 500 nM; in data set [2] (setting [4]) it was 1000 to 10000 nM; in data set [2] (setting [5]) it was 1000 to 10000 nM.

In data set [1], `CC(c1cnn(C)c1[N+](=O)[O-])N(c1cnc2cc(N3CCOCC3)nc(O[C@H]3CC[C@@H](Nc4ncc(OC5CCN(C)C5)cn4)CC3)c2c1)S(C)(=O)=O` (stereo partly drawn) [LFA2064, N-[1-(1-methyl-5-nitro-pyrazol-4-yl)ethyl]-N-[5-[4-[[5-(1-methylpyrrolidin-3-yl)oxypyrimidin-2-yl]amino]cyclohexoxy]-7-morpholino-1,6-naphthyridin-3-yl]methanesulfonamide] yielded an IC50 of 1000 to 10000 nM. For the same compound, in the data set on FaDu cell line, the “Fraction … Hypoxic 0.2% O2” value was “B (B is 0.05 to 0.15)”. Further, the “Fraction … Oxic 5% O2” value in the data set with FaDu cell line is “C (C is 0.02 to 0.05)”. Also, the 50% effective concentration (EC50) in data set [2] (setting [3]) was 10 to 500 nM; in data set [2] (setting [4]), 1000 to 10000 nM; in data set [2] (setting [5]) it was 1000 to 10000 nM.
